Source: PMC4330696, “Characterization of the serine acetyltransferase gene family of Vitis vinifera uncovers differences in regulation of OAS synthesis in woody plants” (Frontiers in Plant Science, 2015)

Columns and labels:
[1] = biological target: T1, VvSERAT2;1 (Vitis vinifera, UniProt F6HCV5); test: SERAT activity assay, titration with cysteine up to […]; type: biochemical; conditions: read-out: Cys Inhibition (IC50 mM)
T1 construct: gene VIT_00s0194g00120; N-terminal His tag (pET28a), E. coli; lacks predicted transit peptide (57 residues predicted); naturally lacks canonical C-terminal tail; free SERAT without OASTL
T1 sequence (F6HCV5 58-306): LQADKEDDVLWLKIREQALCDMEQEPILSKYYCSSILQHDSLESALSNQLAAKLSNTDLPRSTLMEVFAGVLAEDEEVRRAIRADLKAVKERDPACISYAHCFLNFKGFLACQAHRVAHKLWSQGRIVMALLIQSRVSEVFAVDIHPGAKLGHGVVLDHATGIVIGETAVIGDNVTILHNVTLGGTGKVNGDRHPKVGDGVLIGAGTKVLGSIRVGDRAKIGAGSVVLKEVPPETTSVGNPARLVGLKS

[2] = biological target: T2, AtOASTL-B (Arabidopsis thaliana, UniProt P47999); test: OASTL activity assay (Gaitonde); […]-1 pmol enzyme, turnover only; type: biochemical; conditions: co-substrate sulfide; control without SERAT
T2 construct: gene OASB; recombinant, expressed in E. coli (Wirtz et al. 2004)
T2 sequence (P47999 61-392): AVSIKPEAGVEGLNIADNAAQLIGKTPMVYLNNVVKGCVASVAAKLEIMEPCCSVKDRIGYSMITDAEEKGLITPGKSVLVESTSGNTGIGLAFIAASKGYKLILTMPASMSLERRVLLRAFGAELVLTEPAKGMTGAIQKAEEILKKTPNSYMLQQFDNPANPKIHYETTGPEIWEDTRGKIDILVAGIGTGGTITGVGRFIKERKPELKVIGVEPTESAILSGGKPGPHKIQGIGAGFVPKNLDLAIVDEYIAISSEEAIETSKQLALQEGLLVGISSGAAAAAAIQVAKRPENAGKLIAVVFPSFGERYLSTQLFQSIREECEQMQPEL

SMILES	IC50 [1] [mM]	OASTL activity [2]
N[C@@H](CS)C(=O)O [L-Cys]	1.9 ± 0.56	–
CC(=O)OC[C@H](N)C(=O)O [O-acetylserine]	–	Enzymatic activity of OASTL was determined according to Gaitonde
